The results in this text go back to PMC9916658, “Design and Synthesis of New Quinazolin-4-one Derivatives with Negative mGlu7 Receptor Modulation Activity and Antipsychotic-Like Properties” (International Journal of Molecular Sciences, 2023).

One series concerns the target T1, human mGlu8 receptor (Homo sapiens, UniProt O00222).
T1 construct: expressed in transfected cells; host or cells: T-REx 293 (tetracycline-inducible)
The series is described as follows: mGlu8 receptor selectivity, cAMP accumulation screening at 10 µM. The series is classed as cell-based. To be noted: group III mGlu receptors. How it is done: The cell lines with the tetracycline-inducible expression of human metabotropic receptors 4, 7, and 8 were described in detail by Chruścicka et al. (mGlu4 receptor NM_000841, mGlu7 receptor NM_000844.2, and mGlu8 receptor NM_000845). Cells were grown under standard cell culture conditions (37 °C, 5% CO2) in DMEM supplemented with 10% tetracycline-free FBS. The expression was induced through the addition of tetracycline to the culture medium at 0.75 μg/mL.
The determination of the intracellular cAMP through homogeneous time-resolved fluorescence (HTRF) was described in detail previously. […] The intracellular concentration of cyclic AMP was measured by means of a cAMP Gi HTRF kit from Cisbio, according to the manufacturer’s instructions. After 1 h of incubation at room temperature, the fluorescence at 620 nm and 665 nm was read (Tecan Infinite M1000). The results were calculated as the 665 nm/620 nm ratio multiplied by 10^4. […] Data were analyzed using GraphPad Prism version 5.04 for Windows (GraphPad Software, San Diego, USA).
Firstly, all compounds were screened at 10 μM using three cell lines expressing the mGlu4/7/8 receptor to evaluate selectivity. […] For compounds that passed the screening procedure, the dose–response curve in the presence of LSP4-2022 in 5 μM was evaluated compared to reference NAM ADX71743. […]

The nature of series [1]: Pharmacokinetics of ALX-171 after i.v. and p.o. administration. The series is classed as in vivo. Particulars: mouse, female BALB/c mice.

T1 sequence (O00222 34-908): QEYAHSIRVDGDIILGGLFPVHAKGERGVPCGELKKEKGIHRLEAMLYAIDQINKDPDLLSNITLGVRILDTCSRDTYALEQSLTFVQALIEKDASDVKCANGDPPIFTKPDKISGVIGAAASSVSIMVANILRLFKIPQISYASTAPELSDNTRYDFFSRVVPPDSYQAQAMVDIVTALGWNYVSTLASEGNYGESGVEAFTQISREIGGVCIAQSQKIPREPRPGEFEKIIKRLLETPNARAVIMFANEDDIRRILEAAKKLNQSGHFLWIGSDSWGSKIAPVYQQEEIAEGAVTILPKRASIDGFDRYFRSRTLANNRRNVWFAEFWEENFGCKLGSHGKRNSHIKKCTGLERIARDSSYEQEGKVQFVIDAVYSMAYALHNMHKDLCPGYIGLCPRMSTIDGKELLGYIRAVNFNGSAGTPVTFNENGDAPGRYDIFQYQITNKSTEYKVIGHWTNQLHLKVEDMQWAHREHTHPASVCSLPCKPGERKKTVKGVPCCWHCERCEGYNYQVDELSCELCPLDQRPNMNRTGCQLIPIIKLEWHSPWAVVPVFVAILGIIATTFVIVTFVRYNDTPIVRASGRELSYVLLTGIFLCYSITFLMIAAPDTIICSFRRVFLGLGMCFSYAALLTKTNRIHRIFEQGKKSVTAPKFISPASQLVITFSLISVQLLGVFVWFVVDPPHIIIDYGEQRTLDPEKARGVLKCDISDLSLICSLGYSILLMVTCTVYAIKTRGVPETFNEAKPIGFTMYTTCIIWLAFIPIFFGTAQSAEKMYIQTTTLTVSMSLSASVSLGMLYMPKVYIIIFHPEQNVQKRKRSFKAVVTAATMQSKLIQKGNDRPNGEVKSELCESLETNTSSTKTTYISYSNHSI

A word on the AUC(0-t): it is exposure summed from dosing to a finite time, without extrapolation to infinity. A high value points to more exposure. Broadly, the Cmax is the maximum level reached in the sampled fluid or tissue. By Tmax is commonly meant the time from dosing to the highest level. A word on the half-life: it is the time needed for the level to fall by half in the phase considered. The low end stands for rapid decline, the high end for slow decline. One may read the bioavailability as the share of a dose that reaches the circulation, judged against a reference dose that is usually intravenous. Turning to `COc1cccc(-c2ccc3nc(-c4ccccc4Cl)n(C)c(=O)c3c2)c1OC` [ALX-171, 2-(2-chlorophenyl)-6-(2,3-dimethoxyphenyl)-3-methylquinazolin-4(3H)-one], the “selectivity over mGlu8” value at human mGlu8 receptor is “selective”. In addition, in series [1] (iv, brain, i.v. 3 mg/kg), the AUC(0-t) is 3.27 µM·h, the Cmax turned out to be 1850 nM, the Tmax turned out to be 15 min and the half-life was 205 min. In addition, in series [1] (iv, plasma, i.v. 3 mg/kg), the AUC(0-t) is 2.91 µM·h, the Cmax came out at 1590 nM, the Tmax came to 15 min and the Vd was found to be 7.63 L/kg. In series [1] (iv, plasma, i.v. 3 mg/kg), the half-life is 136 min. The bioavailability in series [1] (plasma, oral, p.o. 5 mg/kg vs i.v. 3 mg/kg, read-out: F (peroral bioavailability)) stood at 58%. Moreover, in series [1] (po, brain, p.o. 5 mg/kg), the AUC(0-t) was 2.97 µM·h, the Cmax stood at 1360 nM, the Tmax amounted to 30 min and the half-life was 177 min. Further, in series [1] (po, plasma, p.o. 5 mg/kg), the AUC(0-t) is 2.63 µM·h, the peak level (Cmax) was 1090 nM, the time to peak (Tmax) came to 30 min and the half-life is 185 min.
